Laboratory results from publication PMC2919388, “A Screening Pipeline for Antiparasitic Agents Targeting Cryptosporidium Inosine Monophosphate Dehydrogenase” (PLoS Neglected Tropical Diseases, 2010).
Like-named read-outs stand apart in the source and are kept apart here.

Legend:
T. gondii-CpIMPDH = experiment: Fluorescent T. gondii growth assay, CpIMPDH reporter strain; assay type: cell-based, Toxoplasma gondii; details: for Selectivity = EC50(T. gondii-wild-type)/EC50(T. gondii-CpIMPDH): Figure 5 Sel
From the text: (§1) Wild-type T. gondii and T. gondii-ΔHXGPRT parasites were transfected with plasmid ptubYFPYFsagCAT [37] which drives constitutive cytoplasmic expression of two copies of the yellow fluorescent protein. Similarly, plasmid pCTR2T [38] was transfected into T. gondii-CpIMPDH resulting in constitutive cytoplasmic expression of a tandem of the tomato variant of the red fluorescent protein [39]. Fluorescent parasites were selected and cloned by cell sorting using a MoFlo Legacy instrument (Beckman Coulter, Inc). Growth of fluorescent clones was monitored in 96 well plates as previously described. Briefly, fluorescence was read daily with a SpectraMax M22/M2e (Molecular Devices) plate reader (Ex 485, Em 530) for 6–7 days. For each of the three fluorescent T. gondii clones percent growth inhibition was calculated on a day within the exponential phase of growth for the purpose of determining an IC50 for each compound.
To facilitate screening of antiparasitic activity, we constructed a T. gondii reporter parasite that mirrors the Cryptosporidium purine metabolism. Figure 1 summarizes the main differences between the two parasites in this pathway. We started with a T. gondii knockout mutant that, like C. parvum, lacks the ability to salvage xanthine and guanine via HXGPRT (T. gondii-ΔHXGPRT [41]) and introduced the CpIMPDH gene under the control of a T. gondii promoter. Next the native T. gondii IMPDH gene was disrupted by replacing the entire coding sequence with a chloramphenicol acetyl transferase cassette using a new cosmid-based gene targeting approach. […] This manipulation created strain T. gondii-CpIMPDH-ΔHXGPRT-ΔTgIMPDH. Lastly, we introduced a fluorescent protein cassette and isolated stable transgenic parasites by cell sorting. The resulting strain is referred to as T. gondii-CpIMPDH. […] We similarly engineered fluorescent versions of wild-type T. gondii and T. gondii-ΔHXGPRT to serve as controls.
(§2) Supplementary file pntd.0000794.s002.tif: Figure S2 Obtaining an EC50 value for T. gondii growth. Fluorescent T. gondii parasites are seeded into 96-well plates and spiked with test compound. Fluorescence is measured daily with a SpectraMax M22/M2e (Molecular Devices) plate reader for 6–7 days. The fluorescence readings on a day during the exponential phase of the growth curve, for example day 4 in A, are used to calculated percent growth inhibition. These values are fitted using the 4 parameter model y = D+(A–D)/(1+(x/C)^B) where D is the minimum value, A is the maximum value, C is the EC50 and B is the Hill coefficient, using the SoftMax Pro v5 software, as illustrated in B. The absolute EC50 is recorded at the x intercept where y = 50. (0.33 MB TIF) Click here for additional data file.

wild-type T. gondii = experiment: Fluorescent T. gondii growth assay, wild-type strain; assay type: cell-based, Toxoplasma gondii
From the text: as §1, §2

CpIMPDH = CpIMPDH (Cryptosporidium parvum, UniProt Q8T6T2); details: cited from earlier work
Chain of CpIMPDH (Q8T6T2 whole entry): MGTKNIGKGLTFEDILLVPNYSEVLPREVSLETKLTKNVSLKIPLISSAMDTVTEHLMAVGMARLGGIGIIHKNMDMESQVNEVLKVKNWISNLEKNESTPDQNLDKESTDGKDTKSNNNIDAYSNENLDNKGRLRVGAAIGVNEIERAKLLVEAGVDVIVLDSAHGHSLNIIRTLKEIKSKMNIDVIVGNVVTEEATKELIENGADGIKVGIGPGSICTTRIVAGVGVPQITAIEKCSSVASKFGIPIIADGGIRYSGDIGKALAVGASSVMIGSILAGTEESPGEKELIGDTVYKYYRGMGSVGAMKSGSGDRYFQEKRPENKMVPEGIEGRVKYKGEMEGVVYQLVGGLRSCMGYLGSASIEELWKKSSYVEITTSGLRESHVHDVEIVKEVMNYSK

T. gondii-ΔHXGPRT = experiment: Fluorescent T. gondii growth assay, ΔHXGPRT strain; assay type: cell-based; details: Toxoplasma gondii, read-out: T. gondii model EC50 ΔHXGPRT, T. gondii-ΔHXGPRT
From the text: as §1, §2

HCT-8 cells = experiment: Fluorescent HCT-8 host cell growth assay; assay type: cell-based, human; details: for activity at 25 µM: Homo sapiens, HCT-8, compound at 25 μM, relative to DMSO alone; for effect on host cell (HCT-8) growth: in words; for inhibition of HCT-8 cell growth: at 12.5 µM and 25 µM
Description: HCT-8 cells were transfected with plasmid pmaxGFP (Amaxa) using Lipofectamine (Invitrogen). Fluorescent lines were then selected and cloned using cell sorting. Confluent monolayers of pmaxGFP expressing cells were harvested from T75 flasks and passed through a 40 µm cell strainer. Cells were seeded at 4000 cells per well into black, optical quality, thin bottom, 96-well plates. All test compounds were diluted in DMSO as described. The fluorescence was read daily with a SpectraMax M22/M2e (Molecular Devices) plate reader (Ex 485, Em 530) for 6–7 days. Percent inhibition was calculated on a day within the exponential phase of growth.

C. parvum = experiment: High-content imaging C. parvum growth assay (FITC-VVL); assay type: cell-based, Cryptosporidium parvum; details: for EC50: Cryptosporidium parvum, HCT-8, 48 h, growth in HCT-8 cells, 48 hours; for potency relative to paromomycin: anticryptosporidial activity
Description: The human ileocecal adenocarcinoma epithelial cell line, HCT-8, was used to support C. parvum infection in vitro. HCT-8 cells were maintained in RPMI-1640 (Hyclone) supplemented with 10% FBS, 1 mM sodium pyruvate, 50 U/m penicillin, 50 µg/ml streptomycin, and amphotericin B. Cryptosporidium parvum oocysts were a kind gift from either Dr. Mead (Emory University) or Dr. Kissinger (University of Georgia). HCT-8 cells (2×10^5) were seeded into black, optical quality, thin bottom, 96-well plates (DB Falcon) to achieve a 70% confluent monolayer on the day of infection. To facilitate oocyst excystation, a procedure described by Gut et al., was followed. Briefly, oocysts were washed twice with 1 ml of PBS (pH 7.2), incubated for 10 minutes at 37°C in 1 ml 10 mM of HCl and then incubated for a further 10 minutes in 0.2 ml of 200 µM sodium taurocholate at 15°C [40]. This oocyst suspension was diluted directly with DMEM (Hyclone) supplemented with 2% FBS, 50 U/ml penicillin, 50 µg/ml streptomycin, amphotericin B and 0.2 mM L-glutamine (infection medium) to inoculate host cell monolayers at 5×10^5 oocysts per well. Host cell monolayers were incubated for 3 hours at 37°C prior to removal of unexcysted oocysts by aspiration and PBS wash. Infection medium was then added to the monolayers and infection was allowed to progress for 48 hours.
The VVL IFA was performed in a 96-well format. Following 48 hours of culture C. parvum infected HCT-8 cells were washed with PBS and fixed with 0.2 ml/well of 3% paraformaldehyde/PBS, permeabilized with 0.25% Triton-X-100/PBS and blocked with 4% BSA/PBS. 0.1 ml of fluorescein (FITC)-conjugated VVL (Vector Labs 0.5 µg/ml) in 1% BSA/PBS was applied to wells and incubated for 45 minutes. The plates were washed twice with 200 µl/well of PBS. In the first wash DAPI was included at 0.1 µg/ml. Finally 200 µl/well of PBS was added to the plates prior to storage at 4°C protected from light.
Confocal images were acquired using a BD Biosciences Bioimager P435. The instrument was programmed to automatically change position and focus, capture montage images of 9–16, 40× fields per well, and then compress and save the image files. Object finding algorithms were developed for the recognition of FITC-VVL labelled C. parvum parasites and DAPI labelled host cell nuclei using Attovision Software (BD Biosciences). Briefly, to identify FITC-VVL labelled parasites, the object finding algorithm included, a flat field correction, a polygon shape setting, a 3×3 rolling ball filter, manual pixel intensity thresholding (100 min – 4095 max), and minimum and maximum object size cut-offs of 5 pixels and 350 pixels respectively. The algorithm optimised for finding DAPI labelled host cell nuclei also included flat field correction and polygon shape setting, but applied a 25×25 rolling ball filter which is more suitable for larger objects, an automated pixel intensity threshold, minimum and maximum object size cut-offs of 200 pixels and 4000 pixels respectively, and a watershed step with an erosion factor of 8 to aid in the separation of adjacent densely packed nuclei. Note that the intensity and area size cut off exclude detection of the much smaller parasite nuclei (the human genome is three hundred times larger than the C. parvum genome).
The object finding analysis steps described above recorded the number and area of objects per montage image. The output files along with a plate map file were then passed to an automated analysis pipeline (Pipeline Pilot Software, Accelrys) to calculate the mean number of parasites, the ratio of parasite number to host cell nuclei number, the mean area of parasites and host cell nuclei by well, and the percentage growth by treatment as compared to the no drug control. These analyses were exported in graphical format for each plate and the numerical values tabulated in html format. […]

[1] = Toxoplasma gondii, read-out: T. gondii model EC50 CpIMPDH, T. gondii-CpIMPDH, absence of xanthine
[2] = Toxoplasma gondii, wild-type T. gondii, no added xanthine, read-out: T. gondii model EC50 WT
[3] = wild-type T. gondii, no added xanthine, read-out: T. gondii model EC50 WT
[4] = read-out: CpIMPDH Inhibition IC50 + BSA

Row | Structure (SMILES) | EC50 (T. gondii-CpIMPDH; [1]) [µM] | EC50 (wild-type T. gondii; Toxoplasma gondii, media supplemented with xanthine (0.33 mM), read-out: EC50 wild-type T. gondii with xanthine) [µM] | EC50 (wild-type T. gondii; [2]) [µM] | CpIMPDH inhibition by MPA (CpIMPDH; at concentrations active against TgIMPDH) | EC50 (T. gondii-ΔHXGPRT) [µM] | activity at 25 µM (HCT-8 cells) [%] | Selectivity = EC50(T. gondii-wild-type)/EC50(T. gondii-CpIMPDH) (T. gondii-CpIMPDH) | EC50 (C. parvum) [µM] | effect on host cell (HCT-8) growth (HCT-8 cells) | EC50 (wild-type T. gondii; [3]) [µM] | EC50 (T. gondii-CpIMPDH; read-out: T. gondii model EC50 CpIMPDH, T. gondii-CpIMPDH, absence of xanthine) [µM] | IC50 (CpIMPDH; read-out: CpIMPDH Inhibition IC50 - BSA) [µM] | inhibition of HCT-8 cell growth (HCT-8 cells) | selectivity for the T. gondii-CpIMPDH parasite over wild-type T. gondii (T. gondii-CpIMPDH) [fold] | potency relative to paromomycin (C. parvum) [×] | IC50 (CpIMPDH; [4]) [µM] | IC50 (CpIMPDH; in the presence of BSA, values marked c, read-out: CpIMPDH Inhibition IC50 + BSA) [µM] | IC50 (CpIMPDH; without BSA, values marked c, read-out: CpIMPDH Inhibition IC50 - BSA) [µM]
1 | COc1c(C)c2c(c(O)c1C/C=C(\C)CCC(=O)O)C(=O)OC2 [MPA, mycophenolic acid, reference compound] | > 65 | ≥ 78 | 2.6 | not inhibited | 0.29 | – | – | – | – | – | – | – | – | – | – | – | – | –
2 | C[C@H](Oc1ccnc2ccccc12)c1cn(-c2ccc(C#N)c(Cl)c2)nn1 [Compound A108] | 3.9 | – | 5 | – | – | 47 ± 14 | 1.3 | 12 to 25 | – | – | – | – | – | – | – | – | – | –
3 | CC(Oc1ccnc2ccccc12)c1cn(-c2ccc(Cl)c(Cl)c2)nn1 (stereo not shown) [Compound A90] | – | – | 5 ± 3 | – | – | 77 ± 5 | 1.5 | 6 to 13 | do not inhibit host cell growth | ≤ 10 | – | – | – | – | – | – | – | –
4 | C[C@H](Oc1ccnc2ccccc12)c1cn(-c2ccc(Cl)c(Cl)c2)nn1 [Compound A107] | 2.4 | – | 6 | – | 7 | 64 ± 16 | 3.1 | < 13 | – | – | – | – | – | – | – | – | – | –
5 | CC(Oc1ccc(Cl)c2ccccc12)c1cn(-c2ccc(Cl)cc2)nn1 (stereo not shown) [Compound A82] | – | – | 5 ± 2 | – | – | 108 ± 2 | 0.9 | 6 to 13 | do not inhibit host cell growth | ≤ 10 | ≤ 10 | 0.09 ± 0.03 | – | – | – | – | – | –
6 | CC(Oc1ccnc2ccccc12)c1cn(-c2ccc(Cl)cc2)nn1 (stereo not shown) [Compound A89] | 0.4 ± 0.2 | – | 4.9 ± 0.9 | – | 6 ± 2 | 43 ± 2 | 14 | < 13 | – | – | – | – | – | – | – | – | – | –
7 | CCCC(=O)[O-].[Na+] [sodium butyrate, reference compound] | – | – | – | – | – | – | – | – | did inhibit HCT-8 growth in a dose-dependent manner | – | – | – | – | – | – | – | – | –
8 | CC(Oc1ccnc2ccccc12)c1cn(-c2ccc(C#N)c(Cl)c2)nn1 (stereo not shown) [Compound A92] | 5 ± 1 | – | 9 ± 2 | – | 8 ± 4 | 47 ± 1 | 1.6 | 3 to 6 | – | – | – | – | – | – | – | – | – | –
9 | CC(Oc1cc[n+]([O-])c2ccccc12)c1cn(-c2ccc(Cl)c(Cl)c2)nn1 (stereo not shown) [Compound A103] | 0.5 ± 0.4 | – | 19 ± 4 | – | 17 ± 4 | 33 ± 6 | 36 | < 0.8 | – | ≥ 20 | – | – | inhibit HCT-8 cell growth significantly | ≥ 36 | > 100 | – | – | –
10 | C[C@@H](Oc1cccc2c1ccc[n+]2[O-])c1cn(-c2ccc(Cl)cc2)nn1 [Compound A109] | 0.3 ± 0.1 | – | > 25 | – | > 25 | 89 ± 16 | > 86 | 12 to 25 | – | – | – | – | – | ≥ 36 | – | 0.05 ± 0.01 | – | –
11 | C[C@@H](Oc1cncc2ccccc12)c1cn(-c2ccc(Cl)cc2)nn1 [Compound A98] | < 0.2 | – | 2.8 ± 0.1 | – | 2.3 ± 0.6 | 65 ± 7 | > 12 | 3 to 6 | – | – | – | – | – | – | – | – | 0.03 ± 0.001 | 0.009 ± 0.001
12 | CC(Oc1cccc2c1ccc[n+]2[O-])c1cn(-c2ccc(Cl)cc2)nn1 (stereo not shown) [Compound A102] | 0.3 ± 0.1 | – | 23 ± 3 | – | 20 ± 5 | 62 | 76 | 12 to 25 | – | ≥ 20 | – | – | inhibit HCT-8 cell growth significantly | ≥ 36 | – | 0.06 ± 0.02 | – | –
13 | C[C@@H](Oc1ccnc2ccccc12)c1cn(-c2ccc(Cl)c(Cl)c2)nn1 [Compound A105] | – | – | – | – | – | 81 ± 13 | 2.9 | 6 to 13 | do not inhibit host cell growth | – | – | – | – | – | – | – | – | –
14 | C[C@@H](Oc1cc[n+]([O-])c2ccccc12)c1cn(-c2ccc(Cl)cc2)nn1 [Compound A110] | < 0.2 | – | 23 ± 2 | – | > 25 | 94 ± 12 | > 120 | < 0.8 | – | – | – | – | – | ≥ 36 | > 100 | – | – | –
